Data as given in PubChem BioAssay AID1963977 (Molecular Pharmacology Branch, DTP, NCI, 2024).

System: 624824-186-R-J3-PDC multicell spheroids, viability
Assay: Anticancer human tumor 624824-186-R-J3-PDC patient-derived colon adenocarcinoma cell line growth inhibition [PI3K]
Conditions: for IC50: curve of first compound; for viability, T/C: stronger effect = lower value
Method in brief: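 Viability of mixed-cell spheroids was determined after exposure to pairwise combinations, one partner being inavolisib, alpelisib, duvelisib or copanlisib. Highest tested concentration matched clinical Cmax where known and 10 microM where not, descending in half-log steps.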

[1] = second compound 0.0316 µM, first compound 0.0316 µM
[2] = second compound 0.0316 µM, first compound 0.1 µM
[3] = second compound 0.1 µM, first compound 0.0316 µM
[4] = second compound 0.1 µM, first compound 0.1 µM
[5] = second compound 0.316 µM, first compound 0.0316 µM
[6] = second compound 0.316 µM, first compound 0.1 µM
[7] = second compound 1 µM, first compound 0.0316 µM
[8] = second compound 1 µM, first compound 0.1 µM
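Further: spheroids exposed to agents for seven days before luminescence read.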
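Wherever viability, T/C is given: luminescent signal used as a stand-in for spheroid viability; percent viability relative to DMSO vehicle control wells taken as 100%.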

## CC(C)n1nc(-c2ccc3oc(N)nc3c2)c2c(N)ncnc21 + CC(Nc1ccc2c(c1)OCCn1cc(N3C(=O)OCC3C(F)F)nc1-2)C(N)=O
Second compound 0.00316 µM
  IC50: > 100 nM
Second compound 0.01 µM
  IC50: > 100 nM
Second compound 0.0316 µM
  IC50: 91.7 nM
Second compound 0.1 µM
  IC50: 81.1 nM
Second compound 0.316 µM
  IC50: 71 nM
Second compound 1 µM
  IC50: 42.2 nM
Second compound 0.00316 µM, first compound 0.000316 µM
  viability, T/C: 99.7%
Second compound 0.00316 µM, first compound 0.001 µM
  viability, T/C: 96.8%
Second compound 0.00316 µM, first compound 0.00316 µM
  viability, T/C: 102%
Second compound 0.00316 µM, first compound 0.01 µM
  viability, T/C: 101%
Second compound 0.00316 µM, first compound 0.0316 µM
  viability, T/C: 96.2%
Second compound 0.00316 µM, first compound 0.1 µM
  viability, T/C: 53.6%
Second compound 0.01 µM, first compound 0.000316 µM
  viability, T/C: 97.3%
Second compound 0.01 µM, first compound 0.001 µM
  viability, T/C: 102%
Second compound 0.01 µM, first compound 0.00316 µM
  viability, T/C: 103%
Second compound 0.01 µM, first compound 0.01 µM
  viability, T/C: 105%
Second compound 0.01 µM, first compound 0.0316 µM
  viability, T/C: 93.6%
Second compound 0.01 µM, first compound 0.1 µM
  viability, T/C: 59.8%
Second compound 0.0316 µM, first compound 0.000316 µM
  viability, T/C: 105%
Second compound 0.0316 µM, first compound 0.001 µM
  viability, T/C: 106%
Second compound 0.0316 µM, first compound 0.00316 µM
  viability, T/C: 98.2%
Second compound 0.0316 µM, first compound 0.01 µM
  viability, T/C: 99.9%
[1]
  viability, T/C: 93.2%
[2]
  viability, T/C: 46.5%
Second compound 0.1 µM, first compound 0.000316 µM
  viability, T/C: 99.2%
Second compound 0.1 µM, first compound 0.001 µM
  viability, T/C: 106%
Second compound 0.1 µM, first compound 0.00316 µM
  viability, T/C: 101%
Second compound 0.1 µM, first compound 0.01 µM
  viability, T/C: 96.3%
[3]
  viability, T/C: 84.5%
[4]
  viability, T/C: 42.3%
Second compound 0.316 µM, first compound 0.000316 µM
  viability, T/C: 92.4%
Second compound 0.316 µM, first compound 0.001 µM
  viability, T/C: 92.7%
Second compound 0.316 µM, first compound 0.00316 µM
  viability, T/C: 90.7%
Second compound 0.316 µM, first compound 0.01 µM
  viability, T/C: 84.9%
[5]
  viability, T/C: 83%
[6]
  viability, T/C: 36.2%
Second compound 1 µM, first compound 0.000316 µM
  viability, T/C: 85.8%
Second compound 1 µM, first compound 0.001 µM
  viability, T/C: 86.9%
Second compound 1 µM, first compound 0.00316 µM
  viability, T/C: 86.5%
Second compound 1 µM, first compound 0.01 µM
  viability, T/C: 70.5%
[7]
  viability, T/C: 59.5%
[8]
  viability, T/C: 26.2%

## CC(Cn1ccc(-c2ccc(C#N)c(Cl)c2)n1)NC(=O)c1cc(C(C)O)[nH]n1 (centres undefined) + Cc1nc(NC(=O)N2CCCC2C(N)=O)sc1-c1ccnc(C(C)(C)C(F)(F)F)c1
Second compound 0.0316 µM
  IC50: > 10000 nM
Second compound 0.1 µM
  IC50: > 10000 nM
Second compound 0.316 µM
  IC50: > 10000 nM
Second compound 1 µM
  IC50: > 10000 nM
Second compound 3.16 µM
  IC50: > 10000 nM
Second compound 10 µM
  IC50: > 10000 nM
[1]
  viability, T/C: 101%
[2]
  viability, T/C: 107%
Second compound 0.0316 µM, first compound 0.316 µM
  viability, T/C: 102%
Second compound 0.0316 µM, first compound 1 µM
  viability, T/C: 104%
Second compound 0.0316 µM, first compound 3.16 µM
  viability, T/C: 104%
Second compound 0.0316 µM, first compound 10 µM
  viability, T/C: 113%
[3]
  viability, T/C: 108%
[4]
  viability, T/C: 105%
Second compound 0.1 µM, first compound 0.316 µM
  viability, T/C: 108%
Second compound 0.1 µM, first compound 1 µM
  viability, T/C: 102%
Second compound 0.1 µM, first compound 3.16 µM
  viability, T/C: 107%
Second compound 0.1 µM, first compound 10 µM
  viability, T/C: 109%
[5]
  viability, T/C: 107%
[6]
  viability, T/C: 101%
Second compound 0.316 µM, first compound 0.316 µM
  viability, T/C: 104%
Second compound 0.316 µM, first compound 1 µM
  viability, T/C: 93.1%
Second compound 0.316 µM, first compound 3.16 µM
  viability, T/C: 115%
Second compound 0.316 µM, first compound 10 µM
  viability, T/C: 107%
[7]
  viability, T/C: 111%
[8]
  viability, T/C: 101%
Second compound 1 µM, first compound 0.316 µM
  viability, T/C: 109%
Second compound 1 µM, first compound 1 µM
  viability, T/C: 101%
Second compound 1 µM, first compound 3.16 µM
  viability, T/C: 101%
Second compound 1 µM, first compound 10 µM
  viability, T/C: 98.7%
Second compound 3.16 µM, first compound 0.0316 µM
  viability, T/C: 86.4%
Second compound 3.16 µM, first compound 0.1 µM
  viability, T/C: 91.5%
Second compound 3.16 µM, first compound 0.316 µM
  viability, T/C: 88.3%
Second compound 3.16 µM, first compound 1 µM
  viability, T/C: 91.4%
Second compound 3.16 µM, first compound 3.16 µM
  viability, T/C: 79.3%
Second compound 3.16 µM, first compound 10 µM
  viability, T/C: 86.1%
Second compound 10 µM, first compound 0.0316 µM
  viability, T/C: 72.4%
Second compound 10 µM, first compound 0.1 µM
  viability, T/C: 75.6%
Second compound 10 µM, first compound 0.316 µM
  viability, T/C: 66.5%
Second compound 10 µM, first compound 1 µM
  viability, T/C: 67.3%
Second compound 10 µM, first compound 3.16 µM
  viability, T/C: 67.3%
Second compound 10 µM, first compound 10 µM
  viability, T/C: 62.4%
